Source: US7695969B2, “Methods for generating hypermutable microbes” (priority 2000, dated 2010)
Where two headings read alike, the source gives them in different places.

Experiments:
Format in all cases: cell-based
[1] = test system: T7-PMS134 BL21 cells; experiment: EMS toxicity, cell viability by colony formation
Description: (§1) T7-PMS134 cells and empty vector control cells were grown with IPTG for 48 hours and then diluted 1:50 in LB plus IPTG and increasing amounts of ethyl methane sulfonate (EMS) from 0, 1, 10, 50, 100, and 200 μM. 10 μL aliquots of culture (diluted in 300 μl LB) were plated out on LB agar plus ampicillin plates and grown overnight at 37 C. The next day plates were analyzed for cell viability as determined by colony formation. […] The 200 μM treatment was toxic for both lines.

[2] = test system: empty vector control cells
Description: as §1

[3] = test system: BL21 cells; experiment: Kanamycin-resistance (hypermutability) assay in BL21; conditions: for KAN resistant cells: after 24 hr IPTG-induction; for KAN resistant clones: non-IPTG-induced conditions
Description: However, upon addition of the inducer IPTG, the cells express high-levels of T7 polymerase due to the IPTG-inducible element that drives expression of the polymerase that is resident within the genome of the BL21 cells (30). The BL21 cells are chloramphenicol resistant due to the plasmid that expresses lysozyme within the cell. To introduce the pT7-hPMS 134 or the pT7-hPMSR3 genes into BL21 cells, the cells were made competent by incubating the cells in ice cold 50 mM CaCl2 for 20 minutes, followed by concentrating the cells and adding super-coiled plasmid DNA as describe (Maniatis, T. et. al. Cold Spring Harbor Laboratory Press, Third Edition, 2001). Ampicillin resistant BL21 were selected on LB-agar plates [[…], 1.5% bactoagar, pH 7.0 (Difco)] plates containing 25 μg/ml chloramphenicol and 100 μg/ml ampicillin. The next day, bacterial colonies were picked and analyzed for vectors containing an intact pTACPMS134 or pTAC empty vector by restriction endonuclease digestion and sequence analysis.
Kanamycin-resistant assays using BL21 cells expressing the V5-tagged or untagged PMS134 or PMSR3 polypeptides were carried out as described above. BL21 bacterial cells that harbor the empty vector, pT7-PMS134 or pT7-PMSR3 were grown overnight in LB supplemented with 100 μg/ml ampicillin. The overnight cultures were diluted 1:100 into fresh ampicillin containing medium and grown for 2.5 hours at 37° C. with continuous shaking. When the cells reached an optical density (OD) of 0.6, measured at 600 nm, IPTG was added to each culture to a final concentration of 0.5 mM. Cells were incubated for 24, and 48 hours; at those time points cells were removed for SDS-PAGE analysis and plating (see above). BL21/pT7 (empty vector), BL21/pT7-PMS134, and BL21/pT7-R3 cells were plated onto LB plates, LB plates that contained 100 ug/ml ampicillin, and plates that contain 50 ug/ml Kanamycin. The equivalent of 1×10^7 cells/plate were spread onto the plates. BL21 cells that harbor the empty vector are capable of growth on LB plates as well as LB plates that contain 100 ug/ml ampicillin; that is as expected since the pT7 expression vector renders the cells ampicillin resistant. The vector only control is not capable of growth on Kanamycin.

[4] = test system: kanamycin resistant pT7-PMS134 and pT7-PMSR3 colonies; experiment: Genetic stability of kanamycin resistance (revertants)
Description: As described in EXAMPLE 2 and 3, manipulation of the MMR pathway in microbes results in alterations within the host genome and the ability to select for a novel output traits. It is important that the mutations introduced as a result of defective MMR is genetically stable and passed on to daughter cells once a desired output pathway is established. To determine the genetic stability of mutations introduced into the microbial genome the following experiment was performed. Five independent colonies from pT7-PMS134 and pT7-PMSR3 that are kanamycin resistance were grown overnight from an isolated colony in 5 ml of LB. Next, 1 μL of the overnight culture from these cultures were inoculated into another 5 mL of LB and grown overnight to saturation. Under these growth conditions the microbial cells have divided over 20 generations. Therefore, if the new output trait generated by alteration of MMR is unstable, the cells should “revert” back from kanamycin resistance to kanamycin sensitivity. Cells were plated onto LB plates and incubated overnight at 37° C. Next, the colonies (about 1,000/plate) were replica plated to LB, LB^amp100, and LB^kan50 plates and incubated at 37° C. overnight. […] Extended culturing of cells and replica plating found no reversions of KAN resistance in cultures grown in the absence of IPTG, which produce no PMS134 as determined by western blot (data not shown).

For `CCOS(C)(=O)=O` [EMS, ethyl methane sulfonate], the colony number ([1]; 1 uM EMS) was greater than 1000 colonies, the colony number ([1]; 10 uM EMS) was greater than 1000 colonies and the “colony number (in words)” value ([1]; 50 μM EMS) was “No difference”. For the same molecule, the “reduction in colony number” value ([1]; 100 μM EMS) was 3 fold, the “toxicity (in words)” value ([1]; 200 μM EMS) was “toxic” and the colony number ([2]; 1 uM EMS) was greater than 1000 colonies. For the same molecule, the colony number ([2]; 10 uM EMS) was greater than 1000 colonies, the “number of control cells” value ([2]; 50 μM EMS) was 30 and the “number of control cells” value ([2]; 100 μM EMS) was 0. The “toxicity (in words)” value ([2]; 200 μM EMS) was “toxic”.

B1: PMSR3: human PMS2 related gene product (SEQ ID NO: 24) (protein, listed as Homo sapiens)
chain: MCPWRPRLGRRCMVSPREADLGPQKDTRLDLPRSPARAPREQNSLGEVDRRGPREQTRAPATAAPPRPLGSRGAEAAEPQEGLSATVSACFQEQQEMNTLQGPVSFKDVAVDFTQEEWRQLDPDEKIAYGDVMLENYSHLVSVGYDYHQAKHHHGVEVKEVEQGEEPWIMEGEFPCQHSPEPAKAIKPIDRKSVHQICSGPVVLSLSTAVKELVENSLDAGATNIDLKLKDYGVDLIEVSDNGCGVEEENFEGLISFSSETSHM
B1 was tested, and the KAN resistant cells [3] was “significant number” and the KAN resistant clones [3] was “failed to produce any KAN resistant clones”.

B2: PMS134: dominant negative human PMS2 truncated at codon 134; N-terminal 133 amino acids (SEQ ID NO: 21) (protein, listed as Homo sapiens)
chain: MKQLPAATVRLLSSSQIITSVVSVVKELIENSLDAGATSVDVKLENYGFDKIEVRDNGEGIKAVDAPVMAMKYYTSKINSHEDLENLTTYGFRGEALGSICCIAEVLITTRTAADNFSTQYVLDGSGHILSQK
With B2 the “revertants of KAN resistance” value ([4]; continually grown in IPTG, out of 1200) was 5, the “loss of KAN resistant clones” value ([4]; grown in the absence of IPTG) was “No loss” and the KAN resistant cells [3] was “significant number”. The KAN resistant clones [3] was “failed to produce any KAN resistant clones”.
